According to US10947188B2, “Small molecule ferroptosis inducers” (THE TRUSTEES OF COLUMBIA UNIVERSITY IN THE CITY OF NEW YORK, priority 2016, dated 2021):
Like-named read-outs stand apart in the source and are kept apart here.

System: HT-1080
Test: Modulatory profiling: Alamar Blue viability, lethal compound cotreated with death modulator (EC50, AUC); for AUC HT.BHA: reference of the scale not given here; for AUC HT.EGTA: reference of the scale not given here
Format: cell-based
Design: AUC, modulator HT.3MA / AUC, modulator HT.ALLN / AUC HT.ATA / AUC HT.ActD / AUC HT.BHA / AUC HT.BHT / AUC HT.BocD / AUC HT.CHX / AUC HT.Co2+ / AUC HT.DPQ / AUC HT.EGTA / AUC HT.Lmim / AUC HT.NAD+ / AUC HT.Nec-1 / AUC HT.SP600125 / AUC HT.TLCK / AUC HT.U0126: unit not given beside the values
Details: for AUC HT.ATA: HT-1080, modulator ATA; for AUC HT.ActD: HT-1080, modulator ActD; for AUC HT.BHA: HT-1080, modulator BHA; for AUC HT.BHT: HT-1080, modulator BHT; for AUC HT.BocD: HT-1080, modulator BocD; for AUC HT.CHX: HT-1080, modulator CHX; for AUC HT.Co2+: HT-1080, modulator Co2+; for AUC HT.CspA: HT-1080, modulator CspA; for AUC HT.DPQ: HT-1080, modulator DPQ; for AUC HT.Gd3+: HT-1080, modulator Gd3+; for AUC HT.LNAME: HT-1080, modulator LNAME; for AUC HT.Lmim: HT-1080, modulator Lmim; for AUC HT.NAD+: HT-1080, modulator NAD+; for AUC HT.NMMA: HT-1080, modulator NMMA; for HT.atoc (AUC) / HT.bCarotene (AUC) / HT.deferox (AUC) / HT.digoxin (AUC) / HT.trolox (AUC) / HT.zVAD (AUC): HT-1080; for HT.atoc (AUC): modulator atoc; for HT.bCarotene (AUC): modulator bCarotene; for HT.deferox (AUC): modulator deferox; for HT.digoxin (AUC): modulator digoxin; for HT.trolox (AUC): modulator trolox; for HT.zVAD (AUC): modulator zVAD; for AUC, modulator HT.3MA / AUC, modulator HT.ALLN: HT-1080 cells, modulatory profile value (AUC); for AUC, modulator HT.3MA: lethal compound cotreated with modulator 3MA; for AUC, modulator HT.ALLN: lethal compound cotreated with modulator ALLN; for AUC HT.Nec-1: HT-1080, modulator Nec-1; for AUC HT.Pepstatin: HT-1080, modulator Pepstatin; for AUC HT.SP600125: HT-1080, modulator SP600125; for AUC HT.TLCK: HT-1080, modulator TLCK; for AUC HT.U0126: HT-1080, modulator U0126

SMILES	AUC HT.ATA	AUC HT.ActD	AUC HT.BHA	AUC HT.BHT	AUC HT.BocD	AUC HT.CHX	AUC HT.Co2+	AUC HT.CspA	AUC HT.DPQ	AUC HT.Gd3+	AUC HT.LNAME	AUC HT.Lmim	AUC HT.NAD+	AUC HT.NMMA	HT.atoc (AUC)	HT.bCarotene (AUC)	HT.deferox (AUC)	HT.digoxin (AUC)	HT.trolox (AUC)	HT.zVAD (AUC)	also measured
CN(C)CCCOS(=O)(=O)c1ccc(N2CCC(c3ccc(Cl)cc3)=N2)cc1 [CIL40]	0.06692	−0.06544	−0.09372	−0.1505	0.01176	−0.02863	0.04911	−0.04697	0.04908	−0.0186	−0.01999	0.0004825	−0.04749	−0.006901	0.1232	−0.01785	−0.08111	−0.03539	−0.02768	0.01717	AUC HT.EGTA (HT-1080, modulator EGTA): −0.02642; AUC, modulator HT.3MA: 0.0807; AUC, modulator HT.ALLN: 0.1761
CC(C)C[C@H](NC(=O)[C@H](CC(C)C)NC(=O)[C@H](CC(C)C)NC(=O)OCc1ccccc1)B(O)O [MG262]	0.0332	−0.05854	−0.0765	−0.1219	0.007582	−0.003977	−0.04425	−0.2145	0.008104	−0.003168	0.007002	0.001457	0.07679	−0.004229	0.05222	−0.009255	−0.08465	0.05597	−0.02068	−0.05837	AUC HT.EGTA (HT-1080, modulator EGTA): −0.001152; AUC HT.Nec-1: −0.06817; AUC HT.Pepstatin: −0.006069; AUC HT.SP600125: −0.036; AUC HT.TLCK: 0.03566; AUC HT.U0126: −0.06664; AUC, modulator HT.3MA: −0.06563; AUC, modulator HT.ALLN: −0.1356
CN(C)CC(O)Cn1c2ccc(Cl)cc2c2cc(Cl)ccc21 (stereo not drawn) [CIL5]	0.0005893	−0.00753	−0.08502	−0.09917	0.01524	0.09726	0.08698	−0.02159	0.009641	−0.0257	0.02263	0.003574	0.03421	−0.003405	0.03603	−0.01403	−0.01025	0.005534	0.01247	−0.01378	AUC HT.EGTA (HT-1080, modulator EGTA): −0.009215; AUC HT.Nec-1: 0.003351; AUC HT.Pepstatin: 0.01965; AUC HT.SP600125: −0.02149; AUC HT.TLCK: −0.004057; AUC HT.U0126: −0.02944; AUC, modulator HT.3MA: 0.0132; AUC, modulator HT.ALLN: 0.07446
Cc1cccc(-n2ncc(Cl)c(Cl)c2=O)c1 [CIL22]	0.05908	−0.02402	0.001925	−0.05238	0.008628	0.01938	−0.03478	−0.03611	−0.00934	−0.004534	0.04608	0.01659	0.01014	0.01444	0.04912	−0.01174	0.06507	0.05675	−0.004921	0.02835	AUC HT.EGTA: −0.01254; AUC, modulator HT.3MA: −0.01606; AUC, modulator HT.ALLN: 0.02849
CC(C)C[C@H](NC(=O)[C@H](Cc1ccccc1)NC(=O)c1cnccn1)B(O)O [Bortezomib]	0.0541	−0.07229	−0.04985	−0.131	0.02874	0.02631	0.06445	−0.2224	0.01079	−0.02823	0.009924	0.01347	0.139	0.01354	0.007023	−0.01914	−0.01672	0.07916	−0.004183	0.01074	AUC HT.EGTA (HT-1080, modulator EGTA): −0.006629; AUC HT.Nec-1: −0.06186; AUC HT.Pepstatin: −8.033E−05; AUC HT.SP600125: −0.03028; AUC HT.TLCK: 0.07195; AUC HT.U0126: −0.03187; AUC, modulator HT.3MA: −0.07171; AUC, modulator HT.ALLN: −0.08587
CCCS(=O)(=O)c1nnnn1-c1cccc(OC)c1 [CIL15]	−0.002809	0.01242	−0.03993	−0.1489	0.1021	0.06342	0.1397	−0.007032	−0.02394	−0.03881	0.001309	−0.04837	0.01762	−0.01943	0.1224	−0.003906	0.04237	−0.01238	−0.02956	−0.04682	AUC HT.EGTA (HT-1080, modulator EGTA): −0.0006158; AUC, modulator HT.3MA: 0.0263; AUC, modulator HT.ALLN: 0.0001245
